According to patent US8901130B2, “Low hygroscopic aripiprazole drug substance and processes for the preparation” (Ostuka Pharmaceutical Co., Ltd., priority 2001, dated 2014):

Test: Hygroscopicity test (60° C./100% RH, 24 hours, Karl Fischer water content)
Type: physicochemical
Conditions: for hygroscopicity (water content after exposure): left for 24 hours in a dessicator set at humidity 100%; for hygroscopicity (water content after exposure) / Moisture Content After 24 hrs (%): temperature 60° C.; for Moisture Content After 24 hrs (%): 24 hours in dessicator at humidity 100%; for Initial Moisture Content (%): before exposure to 60° C./100% humidity
Protocol: (7) Hygroscopicity Test Method
One g of the sample was accurately weighed, in a weighing bottle (diameter 5 cm), covered with kimwipes and left to rest in a 60° C./100% RH environment (water/dessicator). 24 hours later, the weighing bottle was removed, transferred to an environment of a room temperature and about 30% RH (magnesium chloride hexahydrate saturated water solution/dessicator) and left, to rest for 24 hours and the water content of the sample was measured by the Karl Fischer method.

| SMILES | hygroscopicity (water content after exposure) | Moisture Content After 24 hrs (%) | Initial Moisture Content (%) |
| --- | --- | --- | --- |
| O=C1CCc2ccc(OCCCCN3CCN(c4cccc(Cl)c4Cl)CC3)cc2N1 [Anhydrous Aripiprazole Crystals B, aripiprazole] | ≤ 0.4% |  |  |
| O=C1CCc2ccc(OCCCCN3CCN(c4cccc(Cl)c4Cl)CC3)cc2N1 [Example 2, aripiprazole] | ≤ 0.4% | 0.04 | 0.04 |
| O=C1CCc2ccc(OCCCCN3CCN(c4cccc(Cl)c4Cl)CC3)cc2N1 [Example 3, aripiprazole] | ≤ 0.4% | 0.02 | 0.02 |
| O=C1CCc2ccc(OCCCCN3CCN(c4cccc(Cl)c4Cl)CC3)cc2N1 [Example 4, aripiprazole] | ≤ 0.4% | 0.02 | 0.02 |
| O=C1CCc2ccc(OCCCCN3CCN(c4cccc(Cl)c4Cl)CC3)cc2N1 [Example 5, aripiprazole] | ≤ 0.4% | 0.04 | 0.04 |
| O=C1CCc2ccc(OCCCCN3CCN(c4cccc(Cl)c4Cl)CC3)cc2N1 [Example 6, aripiprazole] | ≤ 0.4% | 0.04 | 0.04 |
| O=C1CCc2ccc(OCCCCN3CCN(c4cccc(Cl)c4Cl)CC3)cc2N1 [Example 7, aripiprazole] | ≤ 0.4% | 0.03 | 0.04 |
| O=C1CCc2ccc(OCCCCN3CCN(c4cccc(Cl)c4Cl)CC3)cc2N1 [Example 8, aripiprazole] | ≤ 0.4% | 0.03 | 0.04 |
| O=C1CCc2ccc(OCCCCN3CCN(c4cccc(Cl)c4Cl)CC3)cc2N1 [Example 9, aripiprazole] | ≤ 0.4% | 0.01 | 0.03 |

Other lines, results leading:

| hygroscopicity (water content after exposure) | Moisture Content After 24 hrs (%) | Initial Moisture Content (%) | SMILES |
| --- | --- | --- | --- |
| no more than 0.4% | 0.05 | 0.05 | O=C1CCc2ccc(OCCCCN3CCN(c4cccc(Cl)c4Cl)CC3)cc2N1 [Example 10, aripiprazole] |
| ≤ 0.4% | 0.03 | 0.03 | O=C1CCc2ccc(OCCCCN3CCN(c4cccc(Cl)c4Cl)CC3)cc2N1 [Example 11, aripiprazole] |
| ≤ 0.4% | 0.03 | 0.04 | O=C1CCc2ccc(OCCCCN3CCN(c4cccc(Cl)c4Cl)CC3)cc2N1 [Example 12, aripiprazole] |
| ≤ 0.4% | 0.03 | 0.04 | O=C1CCc2ccc(OCCCCN3CCN(c4cccc(Cl)c4Cl)CC3)cc2N1 [Example 13, aripiprazole] |
| ≤ 0.4% | 0.09 | 0.06 | O=C1CCc2ccc(OCCCCN3CCN(c4cccc(Cl)c4Cl)CC3)cc2N1 [Example 14, aripiprazole] |
| ≤ 0.4% | 0.04 | 0.04 | O=C1CCc2ccc(OCCCCN3CCN(c4cccc(Cl)c4Cl)CC3)cc2N1 [Example 15, aripiprazole] |
| 3.28% | 3.28 | 0.04 | O=C1CCc2ccc(OCCCCN3CCN(c4cccc(Cl)c4Cl)CC3)cc2N1 [Reference Example 1, aripiprazole] |
| 1.78% | 1.78 | 0.04 | O=C1CCc2ccc(OCCCCN3CCN(c4cccc(Cl)c4Cl)CC3)cc2N1 [Reference Example 2, aripiprazole] |
